Results: patent publication US20090012046A1, “Methods of Treating Mutated Hiv” (priority 2006, published 2009)
“And” between values parts separate entries of the source, which are not always exact repeats. Equal values may be shown once. Where a name gives a salt, the structure may show the parent alone.

Columns and labels:
Type in all cases: cell-based
[1] = test system: HIV-1 strain with RT mutation K065R; test: Susceptibility of site-directed mutant strain; details: SDM strain K065R
Description: (§1) Site-directed mutant RT coding sequences were generated from a pGEM vector containing the HIV-1 clone HXB2 protease and RT coding sequence by using a QuikChange™ site-directed mutagenesis kit, and HPLC-purified primers. Plasmids were sequenced to confirm that they contained the desired mutations. Mutant viruses were created by recombination of the mutant protease-RT sequence with a protease-RT deleted HIV-1 HXB2 proviral clone^2.

[2] = test system: HIV-1 strain with RT mutation K103N; test: Susceptibility of site-directed mutant strain; details: SDM strain K103N
Description: as §1

[3] = test system: HIV-1 strain with RT mutation M184V; test: Susceptibility of site-directed mutant strain; details: SDM strain M184V
Description: as §1

[4] = test system: HIV-1 strain with RT mutation Y115F; test: Susceptibility of site-directed mutant strain; details: SDM strain Y115F
Description: as §1

[5] = test system: HIV-1 strain with RT mutation Y181C; test: Susceptibility of site-directed mutant strain; details: SDM strain Y181C
Description: as §1

[6] = test system: HIV-1 strain with RT mutation Y188L; test: Susceptibility of site-directed mutant strain; details: SDM strain Y188L
Description: as §1

[7] = test system: HIV-1 strain with RT mutations F227C L234I; test: Susceptibility of site-directed mutant strain; details: SDM strain F227C L234I
Description: as §1

[8] = test system: HIV-1 strain with RT mutations K065R M184V; test: Susceptibility of site-directed mutant strain; details: SDM strain K065R M184V
Description: as §1

[9] = test system: HIV-1 strain with RT mutations K101E K103N; test: Susceptibility of site-directed mutant strain; details: SDM strain K101E K103N
Description: as §1

[10] = test system: HIV-1 strain with RT mutations K103N Y181C; test: Susceptibility of site-directed mutant strain; details: SDM strain K103N Y181C
Description: as §1

[11] = test system: HIV-1 strain with RT mutations L100I K103N E138G V179I Y181C; test: Susceptibility of site-directed mutant strain; details: SDM strain L100I K103N E138G V179I Y181C
Description: as §1

[12] = test system: HIV-1 strain with RT mutations L100I K103N; test: Susceptibility of site-directed mutant strain; details: SDM strain L100I K103N
Description: as §1

[13] = test system: HIV-1 strain with RT mutations M041L D067N K070R T215Y; test: Susceptibility of site-directed mutant strain; details: SDM strain M041L D067N K070R T215Y
Description: as §1

[14] = test system: HIV-1 strain with RT mutations T069S ins069-070S-S L210W T215Y; test: Susceptibility of site-directed mutant strain; details: SDM strain T069S ins069-070S-S L210W T215Y
Description: as §1

[15] = test system: HIV-1 strain with RT mutations Y115F M184V; test: Susceptibility of site-directed mutant strain; details: SDM strain Y115F M184V
Description: as §1

[16] = test system: HIV-2 (ROD); test: Susceptibility of HIV-2 strain
[17] = test system: HIV-1 strain with RT mutations A62V V75I F77L F116Y Q151M; test: Susceptibility of site-directed mutant strain; details: SDM strain A62V V75I F77L F116Y Q151M
Description: as §1

[18] = test system: clinical HIV-1 isolates; test: Susceptibility of recombinant clinical HIV-1 isolates to RT inhibitors (fold change in EC50)
Method: The susceptibility of over 6000 recent clinical HIV-1 isolates for NcRTI-1 and different N(t)RTIs and NNRTIs was assessed.
Recombinant HIV-1 viruses, derived from clinical samples, were constructed by cotransfection of MT4 cells with sample derived viral protease and RT coding sequences and an HIV-1 HXB2-derived proviral clone deleted in the protease and RT coding region^2.

[19] = test system: HIV-1 IIIB; test: In vitro selection of viral strains resistant to RT inhibitors in MT4-LTR-EGFP cells; details: NcRTI-1: prolonged exposure (190 days)
Description: To in vitro select viral strains resistant to RT inhibitors, MT4-LTR-EGFP cells were infected in the presence of the inhibitor (at 2 or 3 times EC50). Cultures were passaged every 3 to 4 days at the same concentration of inhibitor, until full virus breakthrough. At that time, virus was harvested and used for a new round of selection at a higher compound concentration. At each breakthrough, the harvested virus was genotyped to identify acquired mutations. For several RT inhibitors, alone or in combination, the mutations selected when replicating wild type HIV-1 (IIIB) in their presence, were determined (see Table 3).

[20] = over 6000 recent clinical HIV-1 isolates

Compound	Fold change [1]	Fold change [2]	Fold change [3]	Fold change [4]	Fold change [5]	Fold change [6]	Fold change [7]	Fold change [8]	Fold change [9]	Fold change [10]	Fold change [11]	Fold change [12]	Fold change [13]	Fold change [14]	Fold change [15]	Fold change [16]	Fold change [17]	selection of the K65R mutation when combined with TDF [19]	other results
Nc1ccn([C@@H]2CS[C@H](CO)O2)c(=O)n1 [3TC, lamivudine]	>20	1.1	>100	0.7	1.1	1.9	1.1	>100	1.3	0.9	0.7	0.5	8.1	9.5	>100	0.6	–	–	–
CC(C)OC(=O)OCOP(=O)(CO[C@H](C)Cn1cnc2c(N)ncnc21)OCOC(=O)OC(C)C [TDF, tenofovir disoproxil fumarate]	6.0	0.6	0.8	1.0	0.7	0.7	0.6	2.3	0.5	0.5	0.4	0.3	3.3	2.3	0.9	1.0	3.7	–	–
Cc1cn([C@H]2C[C@H](N=[N+]=[N-])[C@@H](CO)O2)c(=O)[nH]c1=O [ZDV, zidovudine]	–	–	–	–	–	–	–	–	–	–	–	–	–	–	–	0.1	–	–	–
Cn1c2ccccc2c2c1cc(C#N)c(=O)n2-c1ccc([N+](=O)[O-])cc1 [NcRTI-1, 5-Methyl-1-(4-nitro-phenyl)-2-oxo-2,5-dihydro-1H-pyrido[3,2-b]indole-3-carbonitrile]	0.46 and 0.5	1.9	5.0	7.9	2.3	1.7	2.0	0.89 and 0.9	2.1	2.1	2.5	2.6	3.8	0.9	75	14	1.0	did not result in selection of the K65R mutation	effect of NNRTI resistance mutations and N(t)RTI multi-drug resistant patterns (TAMs, T69 insertion complex, Q151M complex) on activity [18]: not affected; cross-resistance with the NNRTIs EFV or NVP and the N(t)RTIs ZDV, TDF, ABC ([18]; clinical HIV-1 isolates): No cross-resistance was observed; effect of the K65R mutation on susceptibility ([18]; clinical isolates with K65R): hypersusceptibility; FC (fold change in EC50) ([18]; clinical isolates with combination of mutations M184V+Y115F, random set of more than 1700 isolates): 75; profiled clinical isolates showing resistance (FC>10) [18, 20]: 2.3%; profiled clinical isolates that remained susceptible (fold change in EC50 (FC)<4) [18, 20]: 82%; profiled clinical isolates with reduced susceptibility (FC4-10) [18, 20]: 15.7%
Cc1ccnc2c1NC(=O)c1cccnc1N2C1CC1 [NVP, nevirapine]	3.4	50	2.3	2.9	>100	>100	31	1.2	>100	>100	>100	>100	2.8	1.1	2.3	>100	–	–	–
Nc1nc(=O)n([C@@H]2CS[C@H](CO)O2)cc1F [FTC, emtricitabine]	–	–	–	–	–	–	–	–	–	–	–	–	–	–	–	–	–	the K65R mutation was selected	–
